“And” between values parts separate entries of the source, which are not always exact repeats. Identical values can stand only once.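 Test compounds were applied to cells in 96-well plates for 48 hours at 5 doses. Abbreviation: GI50, concentration required for 50% inhibition of growth.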 The source made the active and inactive calls. No stated cut-off is given here; in the data, active = GI50 up to about 1.1 µM and inactive = higher.
Columns and labels:
Experiment in all cases: NCI tumour cell line growth inhibition, 48 h
[1] = test system: NCI-H226
[2] = test system: UACC-257
[3] = test system: SW-620
[4] = test system: EKVX
[5] = test system: NCI-H460
[6] = test system: PC-3
[7] = test system: OVCAR-4
[8] = test system: SNB-75
[9] = test system: Malme-3M
[10] = test system: COLO 205
[11] = test system: SN12C
[12] = test system: SNB-19
[13] = test system: SK-OV-3
[14] = test system: OVCAR-3
[15] = test system: Hs-578T
[16] = test system: UACC-62
[17] = test system: SF-268
[18] = test system: NCI/ADR-RES
[19] = test system: T47D
[20] = test system: KM12
[21] = test system: SK-MEL-5
[22] = test system: HCT-15
[23] = test system: SR
[24] = test system: A549
[25] = test system: A498
[26] = test system: HCC 2998
[27] = test system: LOX IMVI
[28] = test system: SK-MEL-28
[29] = test system: MCF7
[30] = test system: HT-29
[31] = test system: MDA-MB-435
[32] = test system: CCRF-CEM
[33] = test system: 786-0
[34] = test system: ACHN
[35] = test system: SK-MEL-2
[36] = test system: CAKI-1
[37] = test system: NCI-H23
[38] = test system: M14
[39] = test system: RXF 393
[40] = test system: MOLT-4
[41] = test system: IGROV-1
[42] = test system: OVCAR-5
[43] = test system: HOP-92
[44] = test system: NCI-H522
[45] = test system: RPMI-8226
[46] = test system: OVCAR-8
[47] = test system: HCT-116
[48] = test system: SF-539
[49] = test system: SF-295
[50] = test system: DU-145
[51] = test system: K562
[52] = test system: HOP-62
[53] = test system: U-251
[54] = test system: UO-31
[55] = test system: MDA-MB-231
[56] = test system: TK-10
[57] = test system: HL-60

CCCCCCNCCc1c[nH]cn1
GI50 [1]: > 100 µM (inactive) | GI50 [2]: > 100 µM (inactive) | GI50 [3]: > 100 µM (inactive) | GI50 [4]: > 100 µM (inactive) | GI50 [5]: > 100 µM (inactive) | GI50 [6]: > 100 µM (inactive) | GI50 [7]: > 100 µM (inactive) | GI50 [8]: > 100 µM (inactive) | GI50 [9]: > 100 µM (inactive) | GI50 [10]: > 100 µM (inactive) | GI50 [11]: > 100 µM (inactive) | GI50 [12]: > 100 µM (inactive) | GI50 [13]: > 100 µM (inactive) | GI50 [14]: > 100 µM (inactive) | GI50 [15]: > 100 µM (inactive) | GI50 [16]: > 100 µM (inactive) | GI50 [17]: > 100 µM (inactive) | GI50 [18]: > 100 µM (inactive) | GI50 [19]: > 100 µM (inactive) | GI50 [20]: > 100 µM (inactive) | GI50 [21]: > 100 µM (inactive) | GI50 [22]: > 100 µM | GI50 [23]: > 100 µM (inactive) | GI50 [24]: > 100 µM (inactive) | GI50 [25]: > 100 µM (inactive) | GI50 [26]: > 100 µM (inactive) | GI50 [27]: > 100 µM (inactive) | GI50 [28]: > 100 µM (inactive) | GI50 [29]: > 100 µM (inactive) | GI50 [30]: > 100 µM (inactive) | GI50 [31]: > 100 µM (inactive) | GI50 [32]: > 100 µM (inactive) | GI50 [33]: > 100 µM (inactive) | GI50 [34]: > 100 µM (inactive) | GI50 [35]: > 100 µM (inactive) | GI50 [36]: > 100 µM (inactive) | GI50 [37]: > 100 µM (inactive) | GI50 [38]: > 100 µM (inactive) | GI50 [39]: > 100 µM (inactive) | GI50 [40]: > 100 µM (inactive) | GI50 [41]: > 100 µM (inactive) | GI50 [42]: > 100 µM (inactive) | GI50 [43]: > 100 µM (inactive) | GI50 [44]: > 100 µM (inactive) | GI50 [45]: > 100 µM (inactive) | GI50 [46]: > 100 µM (inactive) | GI50 [47]: > 100 µM (inactive) | GI50 [48]: > 100 µM (inactive) | GI50 [49]: > 100 µM (inactive) | GI50 [50]: > 100 µM (inactive) | GI50 [51]: > 100 µM (inactive) | GI50 [52]: > 100 µM (inactive) | GI50 [53]: > 100 µM (inactive) | GI50 [54]: > 100 µM (inactive) | GI50 [55]: > 100 µM (inactive)

CC(=O)OCC1OC(n2c(-c3ccccc3)c(/N=N/c3ccc(Cl)cc3)c(C)c(C#N)c2=S)C(OC(C)=O)C(OC(C)=O)C1OC(C)=O (centres undefined)
GI50 [3]: 7.01 µM (inactive) and 12.4 µM (inactive) | GI50 [6]: 9.4 µM (inactive) and 5.09 µM (inactive) | GI50 [15]: 15.8 µM (inactive) and 15.3 µM (inactive) | GI50 [56]: 33.8 µM (inactive) and 24.6 µM (inactive) | GI50 [33]: 19.5 µM (inactive) and 23.9 µM (inactive) | GI50 [36]: 24.3 µM (inactive) and 14.3 µM (inactive) | GI50 [39]: 17.4 µM (inactive) and 13.2 µM (inactive) | GI50 [40]: 4.91 µM (inactive) and 3.56 µM (inactive) | GI50 [48]: 14 µM (inactive) and 19.6 µM (inactive) | GI50 [51]: 6.76 µM (inactive) and 11.8 µM (inactive) | GI50 [52]: 15.6 µM (inactive) and 27.8 µM (inactive)

O=c1oc(C(C(F)(F)F)C(F)(F)F)nc2ccccc12
GI50 [1]: > 100 µM (inactive) | GI50 [2]: > 100 µM (inactive) | GI50 [3]: > 100 µM (inactive) | GI50 [4]: > 100 µM (inactive) | GI50 [5]: > 100 µM (inactive) | GI50 [6]: > 100 µM (inactive) | GI50 [7]: > 100 µM (inactive) | GI50 [9]: > 100 µM (inactive) | GI50 [10]: > 100 µM (inactive) | GI50 [12]: > 100 µM (inactive) | GI50 [13]: > 100 µM (inactive) | GI50 [14]: > 100 µM (inactive) | GI50 [18]: > 100 µM (inactive) | GI50 [21]: > 100 µM (inactive) | GI50 [22]: > 100 µM | GI50 [23]: > 100 µM (inactive) | GI50 [24]: > 100 µM (inactive) | GI50 [25]: > 100 µM (inactive) | GI50 [26]: > 100 µM (inactive) | GI50 [27]: > 100 µM (inactive) | GI50 [28]: > 100 µM (inactive) | GI50 [29]: > 100 µM (inactive) | GI50 [56]: > 100 µM (inactive) | GI50 [30]: > 100 µM (inactive) | GI50 [31]: > 100 µM (inactive) | GI50 [32]: > 100 µM (inactive) | GI50 [33]: > 100 µM (inactive) | GI50 [34]: > 100 µM (inactive) | GI50 [35]: > 100 µM (inactive) | GI50 [36]: > 100 µM (inactive) | GI50 [37]: > 100 µM (inactive) | GI50 [38]: > 100 µM (inactive) | GI50 [39]: > 100 µM (inactive) | GI50 [40]: > 100 µM (inactive) | GI50 [41]: > 100 µM (inactive) | GI50 [42]: > 100 µM (inactive) | GI50 [43]: > 100 µM (inactive) | GI50 [44]: > 100 µM (inactive) | GI50 [45]: > 100 µM (inactive) | GI50 [46]: > 100 µM (inactive) | GI50 [47]: > 100 µM (inactive) | GI50 [48]: > 100 µM (inactive) | GI50 [49]: > 100 µM (inactive) | GI50 [51]: > 100 µM (inactive) | GI50 [52]: > 100 µM (inactive) | GI50 [53]: > 100 µM (inactive) | GI50 [54]: > 100 µM (inactive) | GI50 [57]: > 100 µM (inactive) | GI50 [55]: > 100 µM (inactive)

c1ccc2c3nnc(c2c1)SCCSCCSc1nnc(c2ccccc12)SCCSCCS3
GI50 [2]: > 100 µM (inactive) | GI50 [3]: > 100 µM (inactive) | GI50 [4]: > 100 µM (inactive) | GI50 [5]: > 100 µM (inactive) | GI50 [6]: > 100 µM (inactive) | GI50 [7]: > 100 µM (inactive) | GI50 [8]: > 100 µM (inactive) | GI50 [9]: > 100 µM (inactive) | GI50 [10]: > 100 µM (inactive) | GI50 [11]: > 100 µM (inactive) | GI50 [13]: > 100 µM (inactive) | GI50 [14]: > 100 µM (inactive) | GI50 [15]: > 100 µM (inactive) | GI50 [16]: > 100 µM (inactive) | GI50 [17]: > 100 µM (inactive) | GI50 [18]: > 100 µM (inactive) | GI50 [19]: > 100 µM (inactive) | GI50 [21]: > 100 µM (inactive) | GI50 [22]: > 100 µM | GI50 [23]: > 100 µM (inactive) | GI50 [24]: > 100 µM (inactive) | GI50 [27]: > 100 µM (inactive) | GI50 [30]: > 100 µM (inactive) | GI50 [34]: > 100 µM (inactive) | GI50 [35]: > 100 µM (inactive) | GI50 [38]: > 100 µM (inactive) | GI50 [40]: > 100 µM (inactive) | GI50 [41]: > 100 µM (inactive) | GI50 [43]: > 100 µM (inactive) | GI50 [44]: > 100 µM (inactive) | GI50 [46]: > 100 µM (inactive) | GI50 [49]: > 100 µM (inactive) | GI50 [52]: > 100 µM (inactive) | GI50 [55]: > 100 µM (inactive)
